Measured values published in ChEMBL document CHEMBL4665834 (J Med Chem, 2020).
The source made the active and inactive calls. The calls are words filed in the database; no cut-off is given here.

How the values were obtained:
[1] = Solubility of compound in water using crystalline form of sample; type: physicochemical
[2] = Relative oral bioavailability in Wistar rat at 1 to 3 mg/kg administered via gavage in 99.5% water, 0.5% Tylose and TRIS salt formulation by LC-MS/MS analysis; type: ADME, organism-based; details: in vivo, dose 1-3 mg/kg
[3] = Maximum oral bioavailability in rat hepatocytes based well stirred liver model at 1 uM measured after 2 to 90 mins by LC-MS/MS analysis; type: ADME, Hepatocyte; details: time 2-90 min, read-out: Fmax
[4] = Lipophilicity, log D of compound at pH 7.5 by HPLC analysis; details: buffer
[5] = molecular target: T1, Prostaglandin F2-alpha receptor (Homo sapiens, UniProt P43088); assay: Antagonist activity at human FPR expressed in human Chem-1 cells assessed as inhibition of PGF2alpha-induced calcium flux preincubated for 10 mins followed by PGF2alpha stimulation and measured for 120 secs by fluo-8 AM dye based fluorescence assay; type: functional, cell-based
[6] = species on record: Homo sapiens; assay: Selectivity ratio of IC50 for displacement of [3H]prostaglandin E2 from full-length recombinant human EP4 receptor expressed in Chem-1 cell membranes to IC50 for displacement of [3H]PGF2alpha from full-length recombinant human FP receptor expressed in HEK293 cell membranes
[7] = Efflux ratio of apparent permeability across basolateral to apical side over apical to basolateral side in human Caco-2 cells measured after 2 hrs by HPLC analysis; type: ADME, cell-based
[8] = Clearance in Wistar rat at 0.3 to 1 mg/kg, iv administered as bolus dose by LC-MS/MS analysis; type: ADME, organism-based; details: in vivo, dose 0.3-1 mg/kg
[9] = Clearance in Wistar rat at 0.3 to 1 mg/kg, iv administered as bolus dose or 15 mins infusion by LC-MS/MS analysis; type: ADME, organism-based; details: Wistar, in vivo, dose 0.3-1 mg/kg
[10] = species on record: Homo sapiens; assay: Selectivity ratio of IC50 for displacement of [3H]prostaglandin E2 from full-length recombinant human EP1 receptor expressed in HEK293 cell membranes to IC50 for displacement of [3H]PGF2alpha from full-length recombinant human FP receptor expressed in HEK293 cell membranes
[11] = species on record: Homo sapiens; assay: Selectivity ratio of IC50 for displacement of [3H]prostaglandin E2 from full-length recombinant human EP2 receptor expressed in HEK293 cell membranes to IC50 for displacement of [3H]PGF2alpha from full-length recombinant human FP receptor expressed in HEK293 cell membranes
[12] = species on record: Homo sapiens; assay: Selectivity ratio of IC50 for displacement of [3H]PGD2 from full-length recombinant human IP receptor expressed in HEK293 cell membranes to IC50 for displacement of [3H]PGF2alpha from full-length recombinant human FP receptor expressed in HEK293 cell membranes
[13] = species on record: Homo sapiens; assay: Selectivity ratio of IC50 for displacement of [3H]prostaglandin E2 from full-length recombinant human EP3 receptor expressed in HEK293 cell membranes to IC50 for displacement of [3H]PGF2alpha from full-length recombinant human FP receptor expressed in HEK293 cell membranes
[14] = molecular target: Cytochrome P450 3A4 (Homo sapiens, UniProt P08684); assay: Inhibition of CYP3A4 in human liver microsomes using midazolam as substrate incubated for 10 mins in presence of NADPH generating system by LC-MS/MS analysis
[15] = species on record: Homo sapiens; assay: Selectivity ratio of IC50 for displacement of [3H]PGD2 from full-length recombinant human DP1 receptor expressed in Chem-1 cell membranes to IC50 for displacement of [3H]PGF2alpha from full-length recombinant human FP receptor expressed in HEK293 cell membranes
[16] = Apparent permeability in human Caco-2 cells measured after 2 hrs by HPLC analysis; type: ADME, cell-based
[17] = Relative oral bioavailability in Wistar rat at 1 to 3 mg/kg administered via gavage using crystalline form of sample in sodium salt formulation by LC-MS/MS analysis; type: ADME, organism-based; details: in vivo, dose 1-3 mg/kg
[18] = Clearance in Wistar rat hepatocytes assessed as extrapolated blood clearance at 1 uM measured after 2 to 90 mins by LC-MS/MS analysis; type: ADME, cell-based, Hepatocyte; details: time 2-90 min
[19] = molecular target: Prostaglandin E2 receptor EP3 subtype (Homo sapiens) (UniProt P43115); assay: Displacement of [3H]prostaglandin E2 from full-length recombinant human EP3 receptor expressed in HEK293 cell membranes measured after 120 mins by scintillation counting method
[20] = molecular target: Prostaglandin D2 receptor (Homo sapiens) (UniProt Q13258); assay: Displacement of [3H]PGD2 from full-length recombinant human DP1 receptor expressed in Chem-1 cell membranes measured after 120 mins by scintillation counting method
[21] = molecular target: Prostaglandin E2 receptor EP1 subtype (Homo sapiens) (UniProt P34995); assay: Displacement of [3H]prostaglandin E2 from full-length recombinant human EP1 receptor expressed in HEK293 cell membranes measured after 60 mins by scintillation counting method
[22] = molecular target: Prostaglandin E2 receptor EP2 subtype (Homo sapiens, UniProt P43116); assay: Displacement of [3H]prostaglandin E2 from full-length recombinant human EP2 receptor expressed in HEK293 cell membranes measured after 120 mins by scintillation counting method
[23] = molecular target: Prostacyclin receptor (Homo sapiens, UniProt P43119); assay: Displacement of [3H]PGD2 from full-length recombinant human IP receptor expressed in HEK293 cell membranes measured after 60 mins by scintillation counting method
[24] = molecular target: T1, Prostaglandin F2-alpha receptor; assay: Displacement of [3H]PGF2alpha from full-length recombinant human FP receptor expressed in HEK293 cell membranes measured after 60 mins by scintillation counting method
[25] = molecular target: Prostaglandin E2 receptor EP4 subtype (Homo sapiens, UniProt P35408); assay: Displacement of [3H]prostaglandin E2 from full-length recombinant human EP4 receptor expressed in HEK293 cell membranes measured after 120 mins by scintillation counting method
[26] = Half life in Wistar rat at 0.3 to 1 mg/kg, iv administered as bolus dose by LC-MS/MS analysis; type: ADME, organism-based; details: in vivo, dose 0.3-1 mg/kg
[27] = Oral bioavailability in Wistar rat at 1 to 3 mg/kg administered via gavage using EtOH/PEG400/H2O 10/40/50 formulation by LC-MS/MS analysis; type: ADME, organism-based; details: in vivo, dose 1-3 mg/kg
[28] = Protein binding in pooled human plasma assessed as unbound fraction incubated for 6 hrs by LC-MS/MS analysis based equilibrium dialysis method; type: ADME, cell-free

T1 sequence (P43088 whole entry): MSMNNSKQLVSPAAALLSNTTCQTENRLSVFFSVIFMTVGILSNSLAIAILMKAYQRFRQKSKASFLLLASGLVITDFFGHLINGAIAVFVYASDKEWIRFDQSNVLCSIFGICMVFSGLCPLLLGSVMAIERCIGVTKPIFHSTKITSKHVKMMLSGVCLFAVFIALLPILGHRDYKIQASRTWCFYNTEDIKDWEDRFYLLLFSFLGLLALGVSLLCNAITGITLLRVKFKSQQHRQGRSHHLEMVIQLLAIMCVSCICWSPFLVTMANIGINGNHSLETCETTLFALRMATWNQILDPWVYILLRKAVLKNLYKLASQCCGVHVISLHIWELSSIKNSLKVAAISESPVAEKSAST
Chain of Cytochrome P450 3A4 (P08684 whole entry): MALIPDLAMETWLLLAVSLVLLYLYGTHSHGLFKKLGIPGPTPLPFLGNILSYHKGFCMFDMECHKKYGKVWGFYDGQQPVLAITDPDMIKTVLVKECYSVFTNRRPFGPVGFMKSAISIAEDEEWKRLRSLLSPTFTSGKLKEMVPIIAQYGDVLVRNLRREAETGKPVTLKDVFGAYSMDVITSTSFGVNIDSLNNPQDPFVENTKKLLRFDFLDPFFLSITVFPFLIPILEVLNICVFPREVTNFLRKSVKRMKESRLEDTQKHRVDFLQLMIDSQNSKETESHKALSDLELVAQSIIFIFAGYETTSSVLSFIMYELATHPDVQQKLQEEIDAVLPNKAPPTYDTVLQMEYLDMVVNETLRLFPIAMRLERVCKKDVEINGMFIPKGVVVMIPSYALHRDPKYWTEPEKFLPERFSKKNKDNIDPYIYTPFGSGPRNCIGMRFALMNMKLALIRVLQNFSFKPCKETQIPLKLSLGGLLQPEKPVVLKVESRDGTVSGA
Chain of Prostaglandin E2 receptor EP4 subtype (P35408 whole entry): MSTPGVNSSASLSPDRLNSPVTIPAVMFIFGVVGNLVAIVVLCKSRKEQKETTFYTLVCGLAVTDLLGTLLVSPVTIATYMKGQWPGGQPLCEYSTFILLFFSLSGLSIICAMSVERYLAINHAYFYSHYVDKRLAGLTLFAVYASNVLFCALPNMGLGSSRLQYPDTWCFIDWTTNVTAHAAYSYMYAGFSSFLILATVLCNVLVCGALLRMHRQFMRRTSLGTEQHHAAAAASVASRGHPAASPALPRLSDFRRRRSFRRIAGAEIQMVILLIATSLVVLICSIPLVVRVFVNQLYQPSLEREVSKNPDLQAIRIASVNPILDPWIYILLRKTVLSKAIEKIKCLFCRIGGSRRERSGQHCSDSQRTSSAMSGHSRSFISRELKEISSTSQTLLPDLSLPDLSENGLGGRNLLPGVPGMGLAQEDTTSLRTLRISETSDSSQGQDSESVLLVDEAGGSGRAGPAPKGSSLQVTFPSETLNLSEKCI
Chain of Prostaglandin E2 receptor EP2 subtype (P43116 whole entry): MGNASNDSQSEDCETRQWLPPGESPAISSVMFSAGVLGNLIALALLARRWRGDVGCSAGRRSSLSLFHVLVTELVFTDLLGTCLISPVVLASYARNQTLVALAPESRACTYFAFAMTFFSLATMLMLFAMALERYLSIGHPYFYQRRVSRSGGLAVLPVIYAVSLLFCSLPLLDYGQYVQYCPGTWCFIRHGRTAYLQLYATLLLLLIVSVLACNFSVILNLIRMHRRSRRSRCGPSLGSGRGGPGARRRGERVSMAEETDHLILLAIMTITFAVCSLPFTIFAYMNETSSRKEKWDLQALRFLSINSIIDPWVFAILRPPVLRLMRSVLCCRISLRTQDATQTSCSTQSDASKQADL
Chain of Prostaglandin E2 receptor EP3 subtype (Homo sapiens) (P43115 whole entry): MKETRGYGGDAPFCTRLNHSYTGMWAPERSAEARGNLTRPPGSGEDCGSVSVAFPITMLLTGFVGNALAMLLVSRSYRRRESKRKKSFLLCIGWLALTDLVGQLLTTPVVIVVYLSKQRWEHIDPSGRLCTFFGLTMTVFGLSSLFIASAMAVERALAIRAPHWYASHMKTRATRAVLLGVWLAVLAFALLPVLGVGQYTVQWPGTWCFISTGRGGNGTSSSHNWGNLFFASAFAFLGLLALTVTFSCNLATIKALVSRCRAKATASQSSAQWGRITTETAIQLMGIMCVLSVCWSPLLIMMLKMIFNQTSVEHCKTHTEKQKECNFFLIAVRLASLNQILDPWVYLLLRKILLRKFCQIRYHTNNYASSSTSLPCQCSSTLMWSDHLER
Chain of Prostaglandin D2 receptor (Homo sapiens) (Q13258 whole entry): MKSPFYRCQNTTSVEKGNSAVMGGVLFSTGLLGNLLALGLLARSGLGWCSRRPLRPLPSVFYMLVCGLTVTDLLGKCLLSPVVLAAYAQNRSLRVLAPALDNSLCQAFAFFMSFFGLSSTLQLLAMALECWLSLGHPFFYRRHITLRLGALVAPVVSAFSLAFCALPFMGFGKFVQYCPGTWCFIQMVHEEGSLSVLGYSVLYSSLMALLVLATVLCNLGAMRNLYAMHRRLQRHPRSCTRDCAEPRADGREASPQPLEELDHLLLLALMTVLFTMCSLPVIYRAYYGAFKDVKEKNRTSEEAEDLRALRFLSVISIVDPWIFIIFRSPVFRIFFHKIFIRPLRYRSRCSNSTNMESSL
Chain of Prostacyclin receptor (P43119 whole entry): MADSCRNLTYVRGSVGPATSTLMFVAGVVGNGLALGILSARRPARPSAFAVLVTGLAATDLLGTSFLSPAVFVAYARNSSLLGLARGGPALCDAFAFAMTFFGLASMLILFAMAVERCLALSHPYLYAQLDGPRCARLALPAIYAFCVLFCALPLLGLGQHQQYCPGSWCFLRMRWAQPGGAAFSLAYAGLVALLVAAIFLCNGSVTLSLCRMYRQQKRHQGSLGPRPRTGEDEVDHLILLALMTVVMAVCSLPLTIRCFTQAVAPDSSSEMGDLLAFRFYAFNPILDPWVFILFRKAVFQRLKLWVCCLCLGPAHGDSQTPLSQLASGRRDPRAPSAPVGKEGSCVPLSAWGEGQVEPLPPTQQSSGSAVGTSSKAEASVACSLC
Chain of Prostaglandin E2 receptor EP1 subtype (Homo sapiens) (P34995 whole entry): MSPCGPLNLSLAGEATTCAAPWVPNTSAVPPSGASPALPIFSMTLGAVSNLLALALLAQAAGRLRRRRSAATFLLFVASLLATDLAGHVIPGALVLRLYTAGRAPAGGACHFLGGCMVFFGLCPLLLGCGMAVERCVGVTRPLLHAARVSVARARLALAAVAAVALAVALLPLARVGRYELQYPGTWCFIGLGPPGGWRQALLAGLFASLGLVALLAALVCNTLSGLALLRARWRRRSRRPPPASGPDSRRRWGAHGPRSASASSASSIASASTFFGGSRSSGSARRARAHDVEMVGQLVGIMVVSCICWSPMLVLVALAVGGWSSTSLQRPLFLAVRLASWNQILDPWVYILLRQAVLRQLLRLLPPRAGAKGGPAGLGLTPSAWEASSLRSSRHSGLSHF

SMILES	logD [4]	IC50 [5]	Ratio IC50 [6]	clearance [9]	Ratio IC50 [10]	Ratio IC50 [11]	Ratio IC50 [12]	Ratio IC50 [13]	IC50 [14]	Ratio IC50 [15]	other results
Cc1c(N2CCCC2)nc2ccc(Br)cc2c1C(=O)NC[C@H](CCC(=O)O)c1ccccc1Cl.Cl	–	–	–	–	–	–	–	–	–	–	solubility [1]: 2.3 mg/mL
Cc1c(-c2ccccc2)nc2ccc(Br)cc2c1C(=O)Nc1ccc(C(=O)O)cc1F.NC(CO)(CO)CO	–	–	–	–	–	–	–	–	–	–	bioavailability [2]: 37%
Cc1c(-c2ccccc2)nc2ccc(Br)cc2c1C(=O)NCCc1cccnc1	2.6	3.4 µM	> 7.7	–	–	–	–	–	–	–	Fh at 1 µM [3]: 4%
Cc1c(-c2ccccc2)nc2ccc(Br)cc2c1C(=O)Nc1ccc(-c2nnn[nH]2)cc1F	–	0.0052 µM	50	–	–	–	–	–	–	–	efflux ratio at 2 h [7]: 10; clearance [8]: 3 L/h/kg
Cc1c(-c2ccccc2)nc2ccc(I)cc2c1C(=O)Nc1ccc(C(=O)O)cc1F	2	–	15	1.3 L/h/kg	> 86	> 86	> 86	> 86	> 20 µM	> 86	–
Cc1c(-c2ccccc2)nc2ccc(C(C)(C)C)cc2c1C(=O)Nc1ccc(C(=O)O)cc1F	2.1	–	170	1.2 L/h/kg	> 87	> 87	> 87	> 87	> 20 µM	> 87	–
Cc1c(C(=O)Nc2ccc(C(=O)O)cc2F)c2cc(Br)ccc2c(=O)n1-c1ccccc1	1.6	0.04 µM	170	6 L/h/kg	> 1600	> 1600	> 1600	> 1600	> 20 µM	> 1600	Papp at 2 h [16]: 39 nm/s; efflux ratio at 2 h [7]: 7.4
Cc1c(-c2ccccc2)nc2ccc(Br)cc2c1C(=O)Nc1ccc(C(=O)[O-])cc1F.[Na+]	–	–	–	–	–	–	–	–	–	–	bioavailability [17]: 29%
Cc1c(-c2ccccc2)nc2ccc(Br)cc2c1C(=O)NC12CCC(C(=O)O)(CC1)CC2.NC(CO)(CO)CO	–	–	–	–	–	–	–	–	–	–	bioavailability [2]: 79%
Cc1c(-c2ccccc2)nc2ccc(Br)cc2c1C(=O)Nc1ccc(C(=O)O)cc1	1.9	0.15 µM	10	1.4 L/h/kg	> 110	> 110	> 110	> 110	> 20 µM	> 110	–
Cc1c(-c2ccccc2)nc2ccc(Br)cc2c1C(=O)NCCc1ccccn1	–	0.2 µM	–	–	–	–	–	–	–	–	Fh at 1 µM [3]: 7%
Cc1c(-c2ccccc2)nc2ccc(Br)cc2c1C(=O)NC12CCC(C(=O)[O-])(CC1)CC2.[Na+]	–	–	–	–	–	–	–	–	–	–	bioavailability [17]: 80%
Cc1c(-c2ccccc2)nc2ccc(C(F)(F)F)cc2c1C(=O)Nc1ccc(C(=O)O)cc1F	2.1	–	13	2.4 L/h/kg	> 64	> 64	> 64	> 64	> 20 µM	> 64	–
Cc1c(-c2ccccc2)nc2ccc(Br)cc2c1C(=O)Nc1ccc(C(N)=O)cc1F	–	–	16	–	–	–	–	–	–	–	efflux ratio at 2 h [7]: 18; CLhep predicted at 1 µM [18]: 3.5 L/h/kg
Cc1c(-c2cccs2)nc2ccc(Br)cc2c1C(=O)NCCc1cccnc1	–	1.8 µM	> 3.1	–	> 3.1	> 3.1	> 3.1	> 3.1	–	> 3.1	inhibition [19]: inactive; inhibition [20]: inactive; inhibition [21]: inactive; IC50 [22]: 4.4 µM; inhibition [23]: inactive; IC50 [24]: 1.4 µM; inhibition [25]: inactive
Cc1c(-c2ccccc2)nc2ccc(Br)cc2c1C(=O)NCC(C)c1ccccn1 (racemic)	3.1	0.19 µM	–	–	–	–	–	–	–	–	Fh at 1 µM [3]: 24%
Cc1c(-c2ccccc2)nc2ccc(Br)cc2c1C(=O)NCC(CCC(=O)O)c1ccccc1Cl (single isomer, unassigned; (+))	2.2	0.009 µM	–	1.8 L/h/kg	–	–	–	–	> 20 µM	–	half-life [26]: 5.5 h; bioavailability [27]: 75%
COc1ccccc1C(C)CNC(=O)c1c(C)c(-c2ccccc2)nc2ccc(Br)cc12 (single isomer, unassigned; (-))	–	0.014 µM	–	3.8 L/h/kg	–	–	–	–	–	–	Fh at 1 µM [3]: 6%; fraction unbound at 6 h [28]: < 0.01; CLhep predicted at 1 µM [18]: 3.9 L/h/kg; IC50 [24]: < 0.001 µM
Cc1c(-c2ccccc2)nc2ccc(Br)cc2c1C(=O)NCC(C(=O)O)c1ccccc1Cl (stereo in doubt; 31)	–	–	–	3.3 L/h/kg	–	–	–	–	–	–	Fh at 1 µM [3]: 78%; CLhep predicted at 1 µM [18]: 0.9 L/h/kg
Cc1c(-c2ccccc2)nc2ccc(Br)cc2c1C(=O)NCC(CCCC(=O)O)c1ccccc1Cl (stereo in doubt; 44)	–	–	–	2 L/h/kg	–	–	–	–	13 µM	–	Papp at 2 h [16]: 401 nm/s
